Tests used:
[1] = molecular target: T1, IL-17A : IL-17RA binding (Homo sapiens, UniProt Q16552, K93Q); assay: IL-17A(FLAG-tagged):IL-17RA(His-tagged) binding disruption Eu-HTRF assay, Protocol 1; conditions: FLAG-IL-17A 2.5 nM at 2x final concentration; average if tested more than once
T1 construct: Name: IL-17A-Flag
From the text: An antibody directed against the FLAG tag of IL-17A (SEQ ID NO: 1) is labeled with the HTRF donor chromophore (Europium-cryptate). IL-17A is present as a dimer that is “locked into” this quaternary structure due to the formation of loop-spanning […] disulfide bridges. The construct of IL-17RA used in the assay excludes the […] portion of the receptor and is fused to a C-terminal 10×His tag (SEQ ID NO:2). An antibody directed against the His tag of the IL-17RA chimera is labeled with the HTRF acceptor chromophore (“D2”). The fluorescence-resonance energy transfer (FRET) depends on the vicinity of the donor chromophore to the acceptor, and interruption of the binding between the IL-17A and IL-17RA causes the reduction/loss of FRET. Therefore, this assay allows to evaluate the compound effect on the binding IL-17A and IL-17RA by monitoring the fluorescence intensity of donor vs acceptor. The assay was run using either Protocol 1 or Protocol 2 as described below.
Protocol 1. 40 nl of 2-fold serial diluted compound solution for total 22 dilution points is added into each well of a 1536-well, white, low-volume, non-binding plate (Greiner #782904), then 2 μl of FLAG tagged IL-17A at 2× final concentration (2.5 nM) in solution of PBS+0.01% Triton-X100 is added to each well. The assay plate is briefly centrifuged then incubated for 1 h at rt. A mixed solution is prepared containing 2×5 nM 10HIS×IL-17RA, 2×2.5 nM Eu-anti-FLAG (CISBIO), 2×5 nM D2-anti-HIS (CISBIO) in PBS+0.01% Triton-X100+200 mM Potassium Fluoride (Sigma 60238) and 2 μl of mix is added to each well of the assay plate. The plate is briefly centrifuged then incubated for 2 h at rt. The HTRF intensities at the wavelength of donor (620 nm) and acceptor (665 nm) are measured using BMG Pherastar. The ratio between intensities at two wavelengths is calculated and plotted against the compound concentration and the data is fitted to a one-site competition model to yield IC50 of the compound.

[2] = tested on: IL-17A-induced G-CSF production in human normal keratinocyte (NHK); assay: NHK assay: IL-17A-induced G-CSF production in normal human keratinocytes; assay type: cell-based; conditions: 24 h, IL-17A 5 ng/mL, average if tested more than once
Procedure: IL-17A acts directly on keratinocytes through binding to dimeric receptor IL-17RA/RC and drives the production of a number of inflammatory mediators known to be elevated in psoriasis lesional tissue. IL-17A small molecule inhibitors that block the IL-17A to interact with IL-17R would inhibit the IL-17A signaling in its targeted cells such as keratinocytes. The compound functional activity is evaluated for its impact on IL-17A-induced G-CSF production in human normal keratinocyte (NHK).
Adult normal human keratinocytes are cultured in keratinocyte growth medium (Lonza) in a flask till reaching ˜90% confluence, then cells are transferred to a 384-well plate at density of 3000-4000 cell/well. Recombinant human IL-17A (Gibco PHC9174) is pre-incubated with titrated compound or DMSO for 1 h at rt then added to the cell culture plate. The final concentration of IL-17A is 5 ng/mL and DMSO is 0.2%, in the culture containing 5% FBS. Cells are cultured/treated for 24 h at 37° C. Supernatants are collected and G-CSF production is measured through HTRF technology using Human G-CSF Kit (CisBio). G-CSF concentration was extrapolated from the standard curve and IC50 is determined using GraphPad Prism. Cell viability is also evaluated using CellTiter-Glo kit (Promega) and effect of compound on cell viability is compared to DMSO control.

T1 sequence (Q16552 with tags, fused parts or gaps K93Q): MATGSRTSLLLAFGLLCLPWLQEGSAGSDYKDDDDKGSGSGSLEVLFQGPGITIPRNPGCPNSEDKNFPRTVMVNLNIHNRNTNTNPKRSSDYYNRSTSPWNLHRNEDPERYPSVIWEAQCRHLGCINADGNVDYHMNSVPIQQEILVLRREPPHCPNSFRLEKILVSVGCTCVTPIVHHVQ

SMILES	IC50 [1] [nM]	IC50 ([2]; Homo sapiens, Keratinocyte) [nM]	IC50 [2] [nM]
O=C(CC1CC(F)(F)C1)N[C@@H](c1ccc2nc([C@@H](NC(=O)c3nonc3C3CC3)[C@@H]3CCCC(F)(F)C3)[nH]c2c1)C1CC1 [Example 171, 4-Cyclopropyl-N—((S)-(6-((R)-cyclopropyl(2-(3,3-difluorocyclobutyl)acetamido)methyl)-1H-benzo[d]imidazol-2-yl)((R)-3,3-difluorocyclohexyl)methyl)-1,2,5-oxadiazole-3-carboxamide]	50 to 100	< 50	
CC(CC(=O)N[C@H](C)c1ccc2nc([C@@H](NC(=O)c3ccnn3CCC(F)(F)F)C3CCC(F)(F)CC3)[nH]c2c1)C(F)(F)F (single isomer, unassigned) [Example 138, N—((S)-(4,4-Difluorocyclohexyl)(6-((R)-1-((S*)-4,4,4-trifluoro-3-methylbutanamido)ethyl)-1H-benzo[d]imidazol-2-yl)methyl)-1-(3,3,3-trifluoropropyl)-1H-pyrazole-5-carboxamide]	> 100		50 to 100
C[C@@H](NC(=O)CCC(F)(F)F)c1ccc2nc([C@@H](NC(=O)c3cnn(CC4CC4)c3)C3CCC(F)(F)CC3)[nH]c2c1 [Example 61, 1-(Cyclopropylmethyl)-N—((S)-(4,4-difluorocyclohexyl)(6-((R)-1-(4,4,4-trifluorobutanamido)ethyl)-1H-benzo[d]imidazol-2-yl)methyl)-1H-pyrazole-4-carboxamide]	> 100	> 100	
Cc1nonc1C(=O)N[C@@H](CC1(C(F)(F)F)CC1)c1nc2ccc([C@H](NC(=O)CC3CC(F)(F)C3)C3CC3)cc2[nH]1 [Example 242, N—((S)-1-(6-((R)-Cyclopropyl(2-(3,3-difluorocyclobutyl)acetamido)methyl)-1H-benzo[d]imidazol-2-yl)-2-(1-(trifluoromethyl)cyclopropyl)ethyl)-4-methyl-1,2,5-oxadiazole-3-carboxamide]	> 100	> 100	
C[C@@H](NC(=O)CCC(F)(F)F)c1ccc2[nH]c([C@@H](NC(=O)c3csc(CCC(F)(F)F)n3)C3CCC(F)(F)CC3)nc2c1 [Example 224, N—((S)-(4,4-Difluorocyclohexyl)(5-((R)-1-(4,4,4-trifluorobutanamido)ethyl)-1H-benzo[d]imidazol-2-yl)methyl)-2-(3,3,3-trifluoropropyl)thiazole-4-carboxamide]	> 100	> 100	
C[C@@H](NC(=O)CCC(F)(F)F)c1ccc2[nH]c([C@@H](NC(=O)C3CC34CC4)C3CCC(F)(F)CC3)nc2c1 (stereo partly drawn) [Example 110, N—((S)-(4,4-Difluorocyclohexyl)(5-((R)-1-(4,4,4-trifluorobutanamido)ethyl)-1H-benzo[d]imidazol-2-yl)methyl)spiro[2.2]pentane-1-carboxamide]	> 100	> 100	
C[C@@H](NC(=O)CCC(F)(F)F)c1ccc2[nH]c([C@@H](NC(=O)c3ncn(C)n3)C3CCC(F)(F)CC3)nc2c1 [Example 32, N—[(S)-(4,4-Difluorocyclohexyl)-[6-[(1R)-1-(4,4,4-trifluorobutanoylamino)ethyl]-1H-benzimidazol-2-yl]methyl]-1-methyl-1,2,4-triazole-3-carboxamide]	> 100	> 100	
[2H]C([2H])([2H])n1nccc1C(=O)N[C@@H](COC(C)(C)C(F)(F)F)c1nc2cc([C@H](NC(=O)CC3CC(F)(F)C3)C3CC3)ccc2[nH]1 [Example 167, N—((R)-1-(5-((R)-Cyclopropyl(2-(3,3-difluorocyclobutyl)acetamido)methyl)-1H-benzo[d]imidazol-2-yl)-2-((1,1,1-trifluoro-2-methylpropan-2-yl)oxy)ethyl)-1-(methyl-d3)-1H-pyrazole-5-carboxamide]	50 to 100	50 to 100	
CC(C)c1oncc1C(=O)N[C@H](c1nc2cc([C@@H](C)NC(=O)CCC(F)(F)F)ccc2[nH]1)C1CCC(F)(F)CC1 [Example 202, N—((S)-(4,4-Difluorocyclohexyl)(5-((R)-1-(4,4,4-trifluorobutanamido)ethyl)-1H-benzo[d]imidazol-2-yl)methyl)-5-isopropylisoxazole-4-carboxamide]	< 50	< 50	
C[C@@H](OC[C@H](NC(=O)c1nonc1C1CC1)c1nc2ccc([C@H](NC(=O)CC3CC(F)(F)C3)C3CC3)cc2[nH]1)C(F)(F)F (relative stereo) [Example 155, 4-Cyclopropyl-N—((R*)-1-(6-((R)-cyclopropyl(2-(3,3-difluorocyclobutyl)acetamido)methyl)-1H-benzo[d]imidazol-2-yl)-2-(((R)-1,1,1-trifluoropropan-2-yl)oxy)ethyl)-1,2,5-oxadiazole-3-carboxamide]	< 50	> 100	
CC(C)n1nccc1C(=O)N[C@@H](CC(C)(C)C(F)F)c1nc2ccc([C@H](NC(=O)CC3CC(F)(F)C3)C3CC3)cc2[nH]1 [Example 234, N—((S)-1-(6-((R)-Cyclopropyl(2-(3,3-difluorocyclobutyl)acetamido)methyl)-1H-benzo[d]imidazol-2-yl)-4,4-difluoro-3,3-dimethylbutyl)-1-isopropyl-1H-pyrazole-5-carboxamide]	50 to 100	50 to 100	
Cc1nonc1C(=O)NC(CC(C)(C)C(F)(F)F)c1nc2cc([C@@H](C)NC(=O)CCC(F)(F)F)ccc2[nH]1 (single isomer, unassigned) [Example 198, 4-Methyl-N—((S*)-4,4,4-trifluoro-3,3-dimethyl-1-(5-((R)-1-(4,4,4-trifluorobutanamido)ethyl)-1H-benzo[d]imidazol-2-yl)butyl)-1,2,5-oxadiazole-3-carboxamide]	50 to 100	> 100	
CC(C)n1ncnc1C(=O)N[C@H](c1nc2cc([C@@H](C)NC(=O)CCC(F)(F)F)ccc2[nH]1)C1CCC(F)(F)CC1 [Example 199, N—((S)-(4,4-Difluorocyclohexyl)(5-((R)-1-(4,4,4-trifluorobutanamido)ethyl)-1H-benzo[d]imidazol-2-yl)methyl)-1-isopropyl-1H-1,2,4-triazole-5-carboxamide]	> 100	> 100	
C[C@@H](NC(=O)CCC(F)(F)F)c1ccc2[nH]c([C@@H](NC(=O)c3cnn(CC4CC(F)(F)C4(F)F)n3)C3CCC(F)(F)CC3)nc2c1 (stereo partly drawn) [Example 83, N—((S)-(4,4-Difluorocyclohexyl)(5-((R)-1-(4,4,4-trifluorobutanamido)ethyl)-1H-benzo[d]imidazol-2-yl)methyl)-2-((2,2,3,3-tetrafluorocyclobutyl)methyl)-2H-1,2,3-triazole-4-carboxamide]	> 100	> 100	
Cc1nonc1C(=O)N[C@H](c1nc2ccc([C@H](NC(=O)CC3CC(F)(F)C3)C3CC3)cc2[nH]1)C1CCCCO1 (single isomer, unassigned) [Example 252, N—((R)-(6-((R)-Cyclopropyl(2-(3,3-difluorocyclobutyl)acetamido)methyl)-1H-benzo[d]imidazol-2-yl)((R*)-tetrahydro-2H-pyran-2-yl)methyl)-4-methyl-1,2,5-oxadiazole-3-carboxamide]	> 100	> 100	
C[C@@H](NC(=O)CCC(F)(F)F)c1ccc2nc([C@@H](NC(=O)c3cnnn3CCC(C)(C)C)C3CCC(F)(F)CC3)[nH]c2c1 [Example 68, N—((S)-(4,4-Difluorocyclohexyl)(6-((R)-1-(4,4,4-trifluorobutanamido)ethyl)-1H-benzo[d]imidazol-2-yl)methyl)-1-(3,3-dimethylbutyl)-1H-1,2,3-triazole-5-carboxamide]	> 100	> 100	
